Data set [1] deals with T1, Keap1/Nrf2 (Homo sapiens, UniProt Q14145). Description: Inhibition of full length Flag/His-tagged Keap1 kelch domain (unknown origin)/full length Avi-tagged Nrf2 (unknown origin) interaction after 2.25 hrs by TR-FRET assay. In kind it is protein assay.
Another data set deals with MDR1. Description: Efflux ratio of apparent permeability in MDCK-MDR1 cells at 10 uM up to 120 mins. In kind it is ADME, cell-based, Canis lupus familiaris. To be noted: dog.
Data set [2] addresses T1, Keap1/Nrf2. Description: Inhibition of Keap1 kelch domain (unknow origin)/Nrf2-ETGE peptide (unknown origin) interaction by fluorescence polarization assay. Format: protein assay. In general terms: Polarisation of emitted light reports the rotation of a fluorescent probe.
Data set [3] concerns the target T2, Kelch-like ECH-associated protein 1 (Homo sapiens, UniProt Q14145). Description: Activation of human GST-tagged Keap1-DC (321 to 609 residues) expressed in human Huh transformed cells after 16 hrs by ARE-based steady-glo luciferase reporter gene assay. Format: cell-based. For orientation: A reporter such as luciferase makes a cellular process visible.
A short description of data set [4]: Ratio of unbound drug level in mouse brain to plasma. In kind it is ADME. To be noted: read-out: K(p,uu,brain).
Data set [5] in a line: Ratio of unbound drug level in Mdr1a/1b/Bcrp knock-out mouse brain to plasma. The settings on record: read-out: K(p,uu,brain). Format: ADME.
Data set [6] concerns the target T1, Keap1/Nrf2. Description: Inhibition of Keap1/NRF2 interaction in human BEAS-2B cells assessed as upregulation of NQ01 after 48 hrs by MTT assay. In kind it is cell-based. In general terms: Tetrazolium dyes change colour on reduction, which living cells bring about.
The target in data set [7] is T2, Kelch-like ECH-associated protein 1. Description: Inhibition of human Keap1 kelch domain (321 to 609 residues) binding to TAMRA-labeled Nrf2-ETGE peptide after 1 hr by fluorescence polarization assay.

The values below come from ChEMBL document CHEMBL4145572, “Non-covalent Small-Molecule Kelch-like ECH-Associated Protein 1-Nuclear Factor Erythroid 2-Related Factor 2 (Keap1-Nrf2) Inhibitors and Their Potential for Targeting Central Nervous System Diseases” (J Med Chem, 2018).

The structures appear in SMILES notation.

T1 sequence (Q16236 whole entry, the tested form may be a part): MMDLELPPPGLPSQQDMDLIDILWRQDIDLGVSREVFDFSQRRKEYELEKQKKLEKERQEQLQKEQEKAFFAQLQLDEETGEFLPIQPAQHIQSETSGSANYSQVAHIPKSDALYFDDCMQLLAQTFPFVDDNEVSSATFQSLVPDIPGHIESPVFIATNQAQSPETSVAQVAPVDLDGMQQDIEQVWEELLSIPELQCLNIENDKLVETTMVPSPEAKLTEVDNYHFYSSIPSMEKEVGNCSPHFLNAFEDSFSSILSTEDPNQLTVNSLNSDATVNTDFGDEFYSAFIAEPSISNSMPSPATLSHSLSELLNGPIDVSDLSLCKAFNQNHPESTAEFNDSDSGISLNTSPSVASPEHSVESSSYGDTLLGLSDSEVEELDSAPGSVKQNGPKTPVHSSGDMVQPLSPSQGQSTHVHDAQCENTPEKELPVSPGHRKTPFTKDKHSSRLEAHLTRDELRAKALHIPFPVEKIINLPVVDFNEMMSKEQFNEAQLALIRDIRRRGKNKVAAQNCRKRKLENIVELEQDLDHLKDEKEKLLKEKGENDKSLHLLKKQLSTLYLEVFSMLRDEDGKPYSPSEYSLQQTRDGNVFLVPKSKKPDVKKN
T1 sequence (Q14145 whole entry, the tested form may be a part): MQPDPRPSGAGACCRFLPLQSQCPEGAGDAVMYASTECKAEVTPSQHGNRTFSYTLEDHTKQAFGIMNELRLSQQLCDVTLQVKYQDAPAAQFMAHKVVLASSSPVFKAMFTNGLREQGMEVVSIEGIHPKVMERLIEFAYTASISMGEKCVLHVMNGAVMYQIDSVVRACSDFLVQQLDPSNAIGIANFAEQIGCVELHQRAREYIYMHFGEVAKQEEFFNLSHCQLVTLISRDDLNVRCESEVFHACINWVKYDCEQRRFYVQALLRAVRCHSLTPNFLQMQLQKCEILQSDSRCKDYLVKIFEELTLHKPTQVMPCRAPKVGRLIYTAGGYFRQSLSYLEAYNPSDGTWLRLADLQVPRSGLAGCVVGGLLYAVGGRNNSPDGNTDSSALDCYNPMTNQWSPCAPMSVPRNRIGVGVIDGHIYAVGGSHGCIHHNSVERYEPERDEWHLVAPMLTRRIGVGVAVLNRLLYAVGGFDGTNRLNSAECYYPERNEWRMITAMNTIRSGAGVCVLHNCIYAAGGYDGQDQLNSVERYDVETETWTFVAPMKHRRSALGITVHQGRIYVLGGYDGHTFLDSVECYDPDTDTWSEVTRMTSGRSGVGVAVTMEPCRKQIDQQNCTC
T2 sequence (Q14145 whole entry, the tested form may be a part): as above

What is called IC50 is the concentration at which inhibition is half-maximal. Lower therefore signals greater potency. Regarding `C[C@H](Oc1cccc(-c2cccc(-n3ncc(C(=O)O)c3[C@@H]3C[C@H]3c3cn(C)nn3)c2)c1)C1CCCCC1`, the 50% inhibitory concentration (IC50) on Keap1/Nrf2 [1] was under 10 nM.

The term efflux ratio denotes a quotient of directional permeabilities that is used to spot active efflux. With `O=C(O)[C@H]1CCCC[C@H]1C(=O)N1CCc2ccccc2[C@H]1CN1Cc2ccccc2C1=O`, the efflux ratio at 2 h, 10 µM with MDR1 was 7.5. On Keap1/Nrf2 [2], inhibition was half-maximal at 1100 nM (IC50).

`O=C(NCc1ccccn1)Nc1nnc(-c2ccco2)o1`: the EC2 in data set [3] was found to be 1.36 µM.

In the case of `O=C(O)[C@H]1CCCC[C@H]1C(=O)N1CCc2ccccc2[C@H]1CN1C(=O)c2ccccc2C1=O`, the Kp uu in data set [4] is under 0.01; in data set [5] it was 0.4.

With `O=C(O)[C@H]1CCCC[C@H]1C(=O)N1CCc2ccccc2[C@H]1Cc1ccccc1`, the Kp uu in data set [4] stood at 0.9. In addition, in the data set with MDR1, the efflux ratio at 2 h, 10 µM was 0.7. On Keap1/Nrf2 [2], this compound displayed a 50% inhibitory concentration (IC50) of over 100000 nM.

As to `O=C1c2ccccc2C(=O)N1C[C@@H]1c2ccccc2CCN1C(=O)C1CCCCC1`, the Kp uu in data set [4] is 0.3. Further, the efflux ratio at 2 h, 10 µM in the data set with MDR1 was determined as 0.7. On Keap1/Nrf2 [2], this compound yielded an IC50 of over 100000 nM.

The term EC50 denotes the concentration needed to bring the measured effect to its halfway point. For the compound `CCCC[C@@H]1CCCN1C(=O)c1cccc(-c2cccc(-n3ncc(C(=O)O)c3C3CC3)c2)c1`, the concentration for a half-maximal effect (EC50) at Keap1/Nrf2 [6] came to 79 nM. In data set [7], this compound gave an IC50 of 10 to 100 nM.

With `O=C(O)[C@H]1NCCC[C@H]1C(=O)N1CCc2ccccc2[C@H]1CN1C(=O)c2ccccc2C1=O`, the Kp uu in data set [4] was under 0.01.
